Results from article PMC12615753, “Glutathione as a taste modulator: molecular mechanisms of interaction with umami and sweet taste receptors” (Food Chemistry: Molecular Sciences, 2025).

Biological target: T1, hTAS1R1 H71L/rTAS1R3 (Homo sapiens, UniProt Q7RTX1, H71L)
T1 construct: expressed in transfected cells; host or cells: HEK293T/17 (ATCC CRL-11268)
T1 sequence (Q7RTX1 21-841 H71L): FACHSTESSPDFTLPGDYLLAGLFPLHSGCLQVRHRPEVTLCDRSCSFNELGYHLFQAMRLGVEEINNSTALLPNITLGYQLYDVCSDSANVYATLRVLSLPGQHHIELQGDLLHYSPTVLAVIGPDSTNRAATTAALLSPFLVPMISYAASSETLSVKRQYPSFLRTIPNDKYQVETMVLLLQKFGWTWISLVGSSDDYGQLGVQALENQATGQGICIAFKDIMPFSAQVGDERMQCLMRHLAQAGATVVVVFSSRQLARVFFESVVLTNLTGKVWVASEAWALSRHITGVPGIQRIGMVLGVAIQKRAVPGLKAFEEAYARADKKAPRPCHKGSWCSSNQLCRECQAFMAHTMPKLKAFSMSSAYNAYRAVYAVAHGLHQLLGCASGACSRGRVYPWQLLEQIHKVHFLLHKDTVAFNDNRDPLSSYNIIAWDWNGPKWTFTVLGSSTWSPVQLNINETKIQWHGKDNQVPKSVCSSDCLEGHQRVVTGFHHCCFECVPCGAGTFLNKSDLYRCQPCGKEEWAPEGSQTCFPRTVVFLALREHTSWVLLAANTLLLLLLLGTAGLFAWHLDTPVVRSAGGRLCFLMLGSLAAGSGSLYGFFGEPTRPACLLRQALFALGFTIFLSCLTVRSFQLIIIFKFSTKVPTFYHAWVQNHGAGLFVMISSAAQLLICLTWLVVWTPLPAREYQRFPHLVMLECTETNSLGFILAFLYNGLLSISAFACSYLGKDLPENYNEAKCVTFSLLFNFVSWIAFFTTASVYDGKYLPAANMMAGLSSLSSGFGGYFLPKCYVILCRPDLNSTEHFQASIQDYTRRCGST
T1 sequence (Q923K1 21-858 partner): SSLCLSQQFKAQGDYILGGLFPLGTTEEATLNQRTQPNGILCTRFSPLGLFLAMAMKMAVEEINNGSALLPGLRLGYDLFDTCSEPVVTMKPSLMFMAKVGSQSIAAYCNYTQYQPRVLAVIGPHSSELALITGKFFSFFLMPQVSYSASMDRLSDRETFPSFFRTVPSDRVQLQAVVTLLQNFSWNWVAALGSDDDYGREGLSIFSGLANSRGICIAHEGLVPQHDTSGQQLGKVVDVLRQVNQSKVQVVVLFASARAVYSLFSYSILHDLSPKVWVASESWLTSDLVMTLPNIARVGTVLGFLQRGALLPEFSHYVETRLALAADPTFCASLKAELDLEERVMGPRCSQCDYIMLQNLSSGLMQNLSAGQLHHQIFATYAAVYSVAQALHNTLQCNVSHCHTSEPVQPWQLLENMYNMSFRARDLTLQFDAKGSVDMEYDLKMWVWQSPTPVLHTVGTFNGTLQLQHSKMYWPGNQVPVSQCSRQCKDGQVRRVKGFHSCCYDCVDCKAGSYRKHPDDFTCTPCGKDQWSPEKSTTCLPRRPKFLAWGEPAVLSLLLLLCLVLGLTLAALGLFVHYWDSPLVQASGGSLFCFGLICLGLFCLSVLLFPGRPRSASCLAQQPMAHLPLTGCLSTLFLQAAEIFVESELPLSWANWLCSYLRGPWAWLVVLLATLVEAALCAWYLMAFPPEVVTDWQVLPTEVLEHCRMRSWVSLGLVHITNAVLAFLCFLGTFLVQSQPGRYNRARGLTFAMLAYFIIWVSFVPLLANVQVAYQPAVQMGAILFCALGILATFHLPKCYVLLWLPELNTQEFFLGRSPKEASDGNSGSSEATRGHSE
Experiment: Calcium assay, hTAS1R1 mutant co-expressed with rTAS1R3
Assay type: cell-based, rat

In the case of `N[C@@H](CCC(=O)N[C@@H](CS)C(=O)NCC(=O)O)C(=O)O` [GSH, γ-L-glutamyl-L-cysteinyl-glycine], the EC50 is reported as 2.27 ± 0.123 mM, the “response to the agonist alone, vs WT” value (H71L) is reported as “significantly increased the initial amplitude” and the “Max ∆F/F0” value (H71L, GSH) is reported as 1.24 ± 0.0. The “R1 = mutant EC50/WT EC50” value (H71L, GSH) was 0.9.
